Drawing on patent publication US10065948B2, “Histone deacetylase inhibitors and compositions and methods of use thereof” (CHDI Foundation, Inc., priority 2014, dated 2018), this text covers IC50 for 14 compounds.

In assay [1] the target is Histone Deacetylase 4 (HDAC4) catalytic domain (Homo sapiens (Human), UniProt P56524). Put plainly: Biochemical HDAC inhibition assay, fluorogenic substrate Boc-Lys(Tfa)-AMC. As for the experimental part: The potency of compounds is quantified by measuring the Histone Deacetylase 4 (HDAC4) catalytic domain enzymatic activity using the fluorogenic substrate, Boc-Lys(Tfa)-AMC. The substrate is deacetylated to Boc-Lys-AMC by HDAC4. Cleavage by trypsin results in the release of the fluorophore AMC from the deacetylated substrate. The fluorescence of the sample is directly related to the histone deacetylase activity in the sample.
Sequence of Histone Deacetylase 4 (HDAC4) catalytic domain (P56524 648-1032): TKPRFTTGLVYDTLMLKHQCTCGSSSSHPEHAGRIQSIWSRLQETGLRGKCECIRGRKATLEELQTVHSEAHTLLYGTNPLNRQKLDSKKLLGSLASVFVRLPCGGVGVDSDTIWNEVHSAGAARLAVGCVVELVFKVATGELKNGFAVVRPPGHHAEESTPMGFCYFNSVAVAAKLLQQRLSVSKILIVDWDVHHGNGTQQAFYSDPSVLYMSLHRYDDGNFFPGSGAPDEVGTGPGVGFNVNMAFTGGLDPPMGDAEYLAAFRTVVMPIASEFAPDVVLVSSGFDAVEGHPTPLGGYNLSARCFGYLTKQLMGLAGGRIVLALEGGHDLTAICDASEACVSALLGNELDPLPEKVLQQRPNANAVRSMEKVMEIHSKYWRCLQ
Stocks of 60 μL aliquots of the 10 mM compound in DMSO are prepared and stored at −20° C. From one stock aliquot of each compound to be tested and the reference compound, a 16-point serial dilution is prepared according to Table 1 using a 125 μL 16-channel Matrix multi-channel pipette (Matrix Technologies Ltd).
2 μL (200×) of each diluted solution and each control (full activity: 100% DMSO alone or full inhibition 1 mM) is stamped into V-bottomed polypropylene 384-well compound plates using either the Bravo (384-well head from Agilent) or 12.5 μL 16-channel Matrix multi-channel pipette (Matrix Technologies Ltd). Each well with the 200× compound solution is diluted 1:20 by the addition of 38 μL assay buffer+DMSO (10.5% DMSO, 45 mM Tris-HCl, 123 mM NaCl, 2.4 mM KCl, and 0.9 mM MgCl2 at pH 8.0 and equilibrated to room temperature).
The HDAC4 catalytic domain enzyme is human catalytic domain HDAC4 protein (amino acids 648-1032) with a C-terminal 6× histidine tag, produced by BioFocus. A working solution of enzyme is prepared from a 500 μg/mL stock aliquot of HDAC4 catalytic domain (thawed on ice) diluted to 0.2 μg/mL with assay buffer (50 mM Tris-HCl, 137 mM NaCl, 2.7 mM KCl, and 1 mM MgCl2 at pH 8 and equilibrated to room temperature) just prior to the addition of the enzyme to the assay.
5× (50 μM) substrate is prepared just prior to the addition to the assay. A 1 mM substrate stock is made by diluting a 100 mM Boc-Lys(Tfa)-AMC in DMSO solution 1:100 by adding it drop-wise to assay buffer (equilibrated to room temperature) while vortexing at slow speed to prevent precipitation. The 5× substrate is prepared by diluting the 1 mM substrate solution 1:20 by adding it drop-wise to assay buffer (equilibrated to room temperature) while vortexing at slow speed to prevent precipitation.
3× (30 μM) Developer/Stop Solution is prepared just prior to addition to the plate by diluting a stock solution of 10 mM reference compound 1:333 in 25 mg/mL trypsin (PAA Laboratories Ltd.) equilibrated to room temperature.
5 μL of each solution of 1:20 diluted compound from above is transferred to a clear bottomed, black, 384-well assay plate using the Bravo or the Janus (384-well MDT head from Perkin Elmer). Using a 16-channel Matrix multi-channel pipette, 35 μL of the working solution of HDAC4 catalytic domain enzyme (0.2 μg/mL in assay buffer) is transferred to the assay plate. […] The assay plate is then shaken for two minutes on an orbital shaker at 900 rpm (rotations per minute). Next the plate is incubated for 15 minutes at 37° C. The reaction is stopped by adding 25 μL of 3× (30 μM) developer/stop solution to the assay plates using either the Bravo, Janus or a 16-channel Matrix multi-channel pipette. Assay plates are then shaken for 5 minutes on an orbital shaker at 1200 rpm. Next, the assay plates are incubated at 37° C. for 1 hour in a tissue culture incubator. Finally, the fluorescence is measured (Excitation: 355 nm, Emission: 460 nm) using PerkinElmer EnVision in top read mode.

In assay [2] the test system is cellular histone deacetylase enzymatic activity in Jurkat E6-1 cells. Put plainly: Inhibition of cellular HDAC activity, Boc-Lys(Tfa)-AMC substrate (Cell Lys-TFA). In kind it is cell-based. The method, then:
The potency of the compounds is quantified by measuring the cellular histone deacetylase enzymatic activity using the fluorogenic substrate, Boc-Lys(Tfa)-AMC. After penetration in Jurkat E6-1 cells, the substrate is deacetylated to Boc-Lys-AMC. After cell lysis and cleavage by trypsin, the fluorophore AMC is released from the deacetylated substrate only. The fluorescence of the sample is directly related to the histone deacetylase activity in the sample.
Jurkat E6.1 cells are cultured according to standard cell culture protocols in Jurkat E6.1 Growth Media (RPMI without phenol red, 10% FBS, 10 mM HEPES, and 1 mM Sodium Pyruvate). Jurkat E6.1 cells are counted using a Coulter Counter and resuspended in Jurkat E6.1 growth media at a concentration of 75,000 cells/35 μL. 35 μL or 75,000 cells is seeded into Greiner microtitre assay plates. The plates are then incubated at 37° C. and 5% CO2 while other assay components are being prepared.
Stocks of 70 μL aliquots of the 10 mM compound in DMSO are prepared and stored at −20° C. From one stock aliquot of each compound to be tested and the reference compound, a 16-point serial dilution is prepared according to Table 1 using a 125 μL 16-channel Matrix multi-channel pipette.
2 μL (200×) of each diluted solution and each control (full activity: 100% DMSO alone or full inhibition 1 mM) is stamped into V-bottom polypropylene 384-well compound plates using either the Bravo, Janus, or 12.5 μL 16-channel Matrix multi-channel pipette. Each well with the 200× compound solution is diluted 1:20 by the addition of 38 μL Jurkat assay buffer+DMSO (9.5% DMSO, RPMI without phenol red, 0.09% FBS, 9 mM Hepes, and 0.9 mM Sodium Pyruvate equilibrated to room temperature)
5× (500 μM) substrate is prepared just prior to the addition to the assay. The 5× substrate is prepared by diluting a 100 mM Boc-Lys(Tfa)-AMC in DMSO solution 1:200 by adding it drop-wise to Jurkat assay medium (RPMI without phenol red, 0.1% FBS, 10 mM Hepes, and 1 mM Sodium Pyruvate equilibrated to 37° C.) while vortexing at slow speed to prevent precipitation.
10 mL of 3× lysis buffer is prepared with 8.8 ml of 3× stock lysis buffer (50 mM Tris-HCl, pH 8.0, 137 mM NaCl, 2.7 mM KCl, 1 mM MgCl2, 1% Nonidet P40 Substitute equilibrated to room temperature) and 1.2 mL of 3 mg/mL Trypsin equilibrated to room temperature.
5 μL of each solution of 1:20 diluted compound from above is transferred to the Greiner microtitre assay plates with 75,000 cells/well using the Bravo. Cells are then incubated for 2 hours at 37° C. and 5% CO2. […] The cells are then incubated for 3 hours at 37° C. and 5% CO2. Next, 25 μL of 3× lysis buffer is added to each well using either the 125 μL 16 channel pipette or the Bravo. The assay plate is then incubated overnight (15-16 hours) at 37° C. and 5% CO2. The following day, the plates are shaken on an orbital shaker for 1 minute at 900 rpm. Finally the top read fluorescence (Excitation: 355 nm, Emission: 460 nm) is measured using PerkinElmer EnVision.

Assay [3] has as its system cellular histone deacetylase activity (Lys-Ac). Put plainly: Inhibition of cellular HDAC activity (Cell Lys-Ac). The assay is classed as cell-based. The following applies: Lys-Ac substrate.
The mark [4] stands for this setting: Homo sapiens, Jurkat E6.1, Lys-TFA substrate.

Consider `Cc1c(F)cccc1[C@]1(C(=O)NO)Cc2cnn(-c3cccc(F)c3)c2C1` [Example 6, (S)-5-(3-Fluoro-2-methylphenyl)-1-(3-fluorophenyl)-N-hydroxy-1,4,5,6-tetrahydrocyclopenta[c]pyrazole-5-carboxamide], for which the IC50 (as a rule, the concentration needed to halve the response being measured) in assay [1] is 44 nM; in assay [2] (setting [4]), 67 nM; in assay [3], above 50000 nM.
For the compound `Cc1cc(F)ccc1-c1nc2c(s1)CC(C(=O)NO)(c1cccc(F)c1C)C2` (single isomer, unassigned) [Example 75, E2-(abs)-5-(3-Fluoro-2-methylphenyl)-2-(4-fluoro-2-methylphenyl)-N-hydroxy-5,6-dihydro-4H-cyclopenta[d]thiazole-5-carboxamide], the IC50 in assay [1] was 270 nM; in assay [2] (Lys-TFA substrate), 51 nM; in assay [3], above 50000 nM.
As for `Cc1c(F)cccc1[C@]1(C(=O)NO)Cc2cnn(-c3ccccc3F)c2C1` [Example 3, (S)-5-(3-Fluoro-2-methylphenyl)-1-(2-fluorophenyl)-N-hydroxy-1,4,5,6-tetrahydrocyclopenta[c]pyrazole-5-carboxamide], the IC50 in assay [1] is 17 nM; in assay [2] (setting [4]), 33 nM; in assay [3], above 50000 nM.
The matching figures for `Cc1c(F)cccc1[C@]1(C(=O)NO)Cc2cnn(-c3ccccc3Cl)c2C1` [Example 7, (S)-1-(2-Chlorophenyl)-5-(3-fluoro-2-methylphenyl)-N-hydroxy-1,4,5,6-tetrahydrocyclopenta[c]pyrazole-5-carboxamide]: 15 nM, 13 nM and above 50000 nM.
On the same counts, the results for `Cc1ccc(-n2ncc3c2C[C@](C(=O)NO)(c2cccc(F)c2C)C3)cc1` [Example 9, (S)-5-(3-Fluoro-2-methylphenyl)-N-hydroxy-1-(p-tolyl)-1,4,5,6-tetrahydrocyclopenta[c]pyrazole-5-carboxamide] are 39 nM, 82 nM and above 50000 nM.
In the case of `Cc1c(F)cccc1[C@]1(C(=O)NO)CCc2nn(Cc3ccccc3)cc21` [Example 94, (R)-2-Benzyl-4-(3-fluoro-2-methylphenyl)-N-hydroxy-2,4,5,6-tetrahydrocyclopenta[c]pyrazole-4-carboxamide], the IC50 in assay [1] was 820 nM; in assay [2] (setting [4]), 2780 nM; in assay [3], above 50000 nM.
On the same counts, the results for `Cc1c(F)cccc1C1(C(=O)NO)CCc2ncncc2C1` (stereo not drawn) [Example 45, 6-(3-Fluoro-2-methylphenyl)-N-hydroxy-5,6,7,8-tetrahydroquinazoline-6-carboxamide] are 3700 nM, 2600 nM and above 50000 nM.
As for `Cc1c(F)cccc1[C@]1(C(=O)NO)Cc2cnn(-c3cnccn3)c2C1` [Example 19, (S)-5-(3-Fluoro-2-methylphenyl)-N-hydroxy-1-(pyrazin-2-yl)-1,4,5,6-tetrahydrocyclopenta[c]pyrazole-5-carboxamide], the IC50 is 38 nM in assay [1], 53 nM in assay [2] (setting [4]) and above 50000 nM in assay [3].
On the same counts, the results for `Cc1ccc(C)c(-n2ncc3c2C[C@](C(=O)NO)(c2cccc(F)c2C)C3)c1` [Example 12, (S)-1-(2,5-Dimethylphenyl)-5-(3-fluoro-2-methylphenyl)-N-hydroxy-1,4,5,6-tetrahydrocyclopenta[c]pyrazole-5-carboxamide] are 21 nM, 18 nM and above 50000 nM.
The matching figures for `Cc1cccc(-n2cc3c(n2)C[C@](C(=O)NO)(c2cccc(F)c2C)C3)c1` [Example 25, (S)-5-(3-fluoro-2-methylphenyl)-N-hydroxy-2-(m-tolyl)-2,4,5,6-tetrahydrocyclopenta[c]pyrazole-5-carboxamide]: 76 nM, 160 nM and above 50000 nM.
The matching figures for `Cc1c(F)cccc1[C@]1(C(=O)NO)Cc2cnn(-c3ccc(F)cc3)c2C1` [Example 5, (S)-5-(3-Fluoro-2-methylphenyl)-1-(4-fluorophenyl)-N-hydroxy-1,4,5,6-tetrahydrocyclopenta[c]pyrazole-5-carboxamide]: 53 nM, 99 nM and above 50000 nM.
On to `Cc1c(F)cccc1[C@]1(C(=O)NO)Cc2cnn(Cc3ccccc3)c2C1` [Example 92, (S)-1-Benzyl-5-(3-fluoro-2-methylphenyl)-N-hydroxy-1,4,5,6-tetrahydrocyclopenta[c]pyrazole-5-carboxamide], for which the IC50 was 48 nM in assay [1], 27 nM in assay [2] (setting [4]) and above 50000 nM in assay [3].
As to `Cc1c(F)cccc1[C@]1(C(=O)NO)Cc2cnn(-c3ccc(OC(F)F)cc3)c2C1` [Example 20, (S)-1-(4-(Difluoromethoxy)phenyl)-5-(3-fluoro-2-methylphenyl)-N-hydroxy-1,4,5,6-tetrahydrocyclopenta[c]pyrazole-5-carboxamide], the figures for the IC50 in assay [1], in assay [2] (setting [4]) and in assay [3] were 109 nM, 250 nM and above 50000 nM, respectively.
`Cc1c(F)cccc1C1(C(=O)NO)CCc2nn(CC(F)(F)F)c(C3CC3)c2C1` (stereo not drawn) [Example 39, 3-Cyclopropyl-5-(3-fluoro-2-methylphenyl)-N-hydroxy-2-(2,2,2-trifluoroethyl)-4,5,6,7-tetrahydro-2H-indazole-5-carboxamide]: the IC50 in assay [1] was 4400 nM; in assay [2] (setting [4]), 1800 nM; in assay [3], above 50000 nM.
